Paper PMC12010006, “Subnanomolar MAS-related G protein-coupled receptor-X2/B2 antagonists with efficacy in human mast cells and disease models” (Signal Transduction and Targeted Therapy, 2025)
Entries after “also recorded” stand apart in the source; their conditions may differ.

Columns and labels:
mouse MRGPRB2 = biological target: T1, mouse MRGPRB2 (Mus musculus, UniProt Q3KNA1); assay: Ca2+ assay, 1321N1 astrocytoma cells expressing MRGPRB2; format: cell-based
T1 construct: expressed in transfected cells; host or cells: 1321N1 astrocytoma cells; plasmid pLVX-IRES-MRGPRB2-mCherry (Addgene #213961)
T1 sequence (Q3KNA1 1-338): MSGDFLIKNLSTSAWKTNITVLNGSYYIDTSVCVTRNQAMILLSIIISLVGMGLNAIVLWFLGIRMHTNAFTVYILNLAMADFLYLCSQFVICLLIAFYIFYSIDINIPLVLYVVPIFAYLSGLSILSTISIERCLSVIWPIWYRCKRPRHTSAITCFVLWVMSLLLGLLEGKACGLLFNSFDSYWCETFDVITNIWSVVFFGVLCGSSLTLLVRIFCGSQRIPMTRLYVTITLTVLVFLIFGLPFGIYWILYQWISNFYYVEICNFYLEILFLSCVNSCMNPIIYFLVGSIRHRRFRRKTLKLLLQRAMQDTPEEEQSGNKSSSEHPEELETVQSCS
Description: Therefore, we investigated whether the new MRGPRX2 antagonists could also block MRGPRB2. To this end, we used recombinant 1321N1 astrocytoma cells that stably expressed MRGPRB2, employing Ca^2+ assays, and CST-14 as MRGPRX2/MRGPRB2 agonist (EC80 value of 2000 nM).[31]
For MRGPRB2, the pKi values of the compounds were determined using 1321N1 astrocytoma cells recombinantly expressing MRGPRB2 using Ca^2+ assays versus the MRGPRX2/MRGPRB2 agonist CST-14 (EC80 value, 2000 nM). For MRGPRX2, pKi values were determined using Ca^2+ assays performed in LN229 cells recombinantly overexpressing MRGPRX2 versus the agonist CST-14 (EC80 value, 800 nM). b Concentration-response curve of PSB-172656 in Ca^2+ assays using 1321N1 astrocytoma cells expressing MRGPRB2 versus CST-14 (EC80 value, 2000 nM), Ki value 0.302 ± 0.039 nM. Data are generated from 3 biological replicates, determined in duplicates. c A representative trace showing the effect of C48/80 (30 µg/mL) on a mouse tracheal ring in isometric force measurements using a wire-myograph system. d The contraction response of mouse trachea to C48/80 (30 µg/mL) was normalized to the contraction caused by methacholine (10 µM), a muscarinic receptors agonist. […]

MRGPRX2 = biological target: T2, MRGPRX2 (Homo sapiens, UniProt Q96LB1); assay: Ca2+ mobilization in LAD2 cells; format: cell-based; conditions: stimulation with clomipramine (16.0 µM), paroxetine (18.1 µM), desipramine (34.4 µM); listed as PSB-172656
T2 sequence (Q96LB1 1-330): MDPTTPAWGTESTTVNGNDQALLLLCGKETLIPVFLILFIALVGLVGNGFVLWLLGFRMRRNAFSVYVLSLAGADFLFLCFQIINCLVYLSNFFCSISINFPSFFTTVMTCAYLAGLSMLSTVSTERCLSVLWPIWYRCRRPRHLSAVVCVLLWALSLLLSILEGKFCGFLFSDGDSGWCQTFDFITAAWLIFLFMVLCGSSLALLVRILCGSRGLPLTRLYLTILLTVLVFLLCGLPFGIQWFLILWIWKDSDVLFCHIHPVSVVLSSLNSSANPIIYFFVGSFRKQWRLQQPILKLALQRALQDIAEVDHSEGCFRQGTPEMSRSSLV
From the text: PSB-172656 inhibited MRGPRX2-mediated Ca^2+ mobilization in LAD2 cells (see Supplementary Fig. S4).
Blocking of MRGPRX2 by the selective antagonist PSB-172656. […] Arrows indicate addition of stimulus; graphs represent means ± SEM of three independent experiments.

CCc1c(C(C)C)[nH]c2nc3cc(F)c(F)cc3n2c1=O [Compound 24, 3-ethyl-7,8-difluoro-2-isopropylbenzo[4,5]imidazo [1,2-a] pyrimidin-4(1H)-one]
fold less potent at MRGPRB2 than at human MRGPRX2 (mouse MRGPRB2; Ca2+ assays): 3 fold
Ki (mouse MRGPRB2; versus CST-14 (EC80 2000 nM)): 0.302 nM
effect on MRGPRX2-mediated Ca2+ mobilization in LAD2 cells (MRGPRX2): decreased Ca^2+ mobilization; also recorded: inhibited
